Experimental data as given in EP0455830B1, “MEDICINE CONTAINING THIAZINE DIOXIDE DERIVATIVE” (NIPPON HYPOX LABORATORIES INCORPORATED, priority 1989, dated 1991).
Several values for one entry are separate records, joined by “and”; a condition that tells them apart may be missing. Identical values can stand only once. Like-named read-outs stand apart in the source and are kept apart here.

Key:
[1] = tested on: vomiting caused by cisplatin; experiment: Effect on inhibition of vomiting caused by cisplatin -1 (Example 6), degree of vomiting per dog; format: in vivo; design: key: III: Extreme; II: Moderate; I: Slight; 0: No vomiting; conditions: 20 mg/kg p.o. (capsule) 30 min before i.v. cisplatin; individual dogs
Method: Effect on inhibition of vomiting caused by cisplatin -1
Five dogs (7 - 12.5 kg) per group were admininistered intravenously with 0.4 mg/kg of cisplatin per day for the initial 3 days and with 0.8 mg/kg of cisplatin per day for the subsequent 1 day. HX-1920 in a dose of 20 mg/kg was encapsulated and administered 30 minutes before the intravenous administration of cisplatin. Separately, Nauzelin (trade name, manufactured by Kyowa Hakko Kogyo Co., Ltd.), which was a domperidone type antiemetic, was administered to another group of five dogs in a dose of 2 mg/kg for 7 days. […] The vomiting was cured after 24 hours. However, the same symptom was repeatedly manifested when cisplatin was administered. […] Thus, the effect of HX-1920 on the alleviation of the vomit-inducing activity of the carcinostatic cisplatin was evident.

[2] = tested on: nephritis caused by cisplatin; experiment: Effect on nephritis caused by cisplatin - 3 (Example 4), BUN and survival; format: in vivo, male ICR rats; conditions: with cisplatin 3 mg/kg subcutaneously for 4 days
Method: Effect on nephritis caused by cisplatin - 3
Ten male ICR rats (8 weeks of age) per group were administered subcutaneously with 3 mg/kg of cisplatin for 4 days, and at the same, HX-1920 was orally administered in a dose of 100 mg/kg. Sixteen hours after the final administration, 5 rats of each group were measured for blood urea nitrogen (BUN), and the survival ratios of the remaining 5 rats of each group for the subsequent 5 days were examined. […] Thus, the effect of the administration of HX-1920 on the alleviation of renal dysfunctions was observed. […]

[3] = tested on: nephritis caused by cisplatin; experiment: Effect on nephritis caused by cisplatin - 2 (Example 3); format: in vivo, female Fischer rats; conditions: with cisplatin 1 mg/kg hypodermically for 8 days, 24 h after final administration
Method: Effect on nephritis caused by cisplatin - 2
Six female Fischer rats (8 weeks of age) per group were administered hypodermically with 1 mg/kg of cisplatin for 8 days, and at the same time, HX-1920 was administered orally in a dose of 10 mg or 100 mg/kg. In both the administrations, the blood urea nitrogen (BUN) and creatinine measured 24 hours after the final administration tended to show lower values. […]

[4] = tested on: nephritis caused by cisplatin; experiment: Effect on nephritis caused by cisplatin -1 (Example 2); format: in vivo, female Fischer rats; conditions: with cisplatin 2 mg/kg hypodermically for 5 days, 24 h after final administration
Method: Effect on nephritis caused by cisplatin -1
Five female Fischer rats (5 weeks of age) per group were administered hypodermically with 2 mg/kg of cisplatin for 5 days, and at the same time, HX-1920 was administered orally in a dose of 50 mg or 150 mg/kg, or administered intraperitoneally in a dose of 10 or 30 mg/kg. Twenty-four hours after the final administration, the rats were sacrificed, and their blood urea nitrogen (BUN) and creatinine were measured.

[5] = tested on: vomiting induced by the cisplatin; experiment: Effect on inhibition of vomiting caused by cisplatin -2 (Example 7), manifestation ratio; format: in vivo, mongrel dogs
Method: Effect on inhibition of vomiting caused by cisplatin -2
Female and male mongrel dogs weiging about 10 kg were administered intravenously with 0.4 mg/kg/day of cisplatin dissolved in a physiological saline solution for the initial 3 days and with 0.8 mg/kg/day of cisplatin for the subsequent 4 days to examine the effects of substances to be tested on the basis of a manifestation ratio, as an index, of vomiting induced by the cisplatin.
HX-1920, which was a substance to be tested, was dissolved in a 10 % Nikkol solution (Nikkol: trade name, dissolving aid manufactured by Nikko Chemical Co., Ltd.) containing 1 % NaHCO₃, and put into gelatin soft capsules, and the capsules were administered orally 30 minutes before the administration of cisplatin.
In addition, as a known domperidone type antiemetic, a 1 % Nauzelin powder was put into gelatin soft capsules, and administered orally 30 minutes before the administration of cisplatin.

[6] = tested on: nephritis caused by cisplatin; experiment: Effect on nephritis caused by cisplatin - 4 (Example 5); format: in vivo, female F344 rats; conditions: for BUN / Creatinine: cisplatin 1 mg/kg hypodermically for 8 days, 24 h after final cisplatin; for inhibition at 100 mg/kg: Rattus norvegicus, po, 100 mg/kg p.o., inhibition of the cisplatin-induced increase
Method: Effect on nephritis caused by cisplatin - 4
Six to seven female F344 rats per group weighing about 150 g, per group, were administered hypodermically in the dorsal portion with 1 mg/kg of cisplatin dissolved in a physiological saline solution once a day over 8 days. Twenty-four hours after the final administration of the cisplatin, the rats were anesthtized with ether, and the blood was collected from each rat, centrifuged and measured for blood urea nitrogen (BUN) and creatinine with an autoanalyzer Olympus AU-550.
HX-1920 which was a substance to be tested was dissolved in a 2.5 % NaHCO₃, and the resultant solution was administered orally in a dose of 10 or 100 mg/kg over 8 days immediately before the administration of the cisplatin.
The increases in BUN and creatinine by the administration of cisplatin are considered to be characteristics in acute renal failure. […]

[7] = tested on: stomach contraction caused by cisplatin; experiment: Effect on inhibition of stomach contraction caused by cisplatin (Example 8); format: in vivo, female Fischer rats; conditions: with cisplatin 2 mg/kg subcutaneously once a day for 4 days
Method: Effect on inhibition of stomach contraction caused by cisplatin
Cisplatin in a dose of 2 mg/kg was administered subcutaneously into female Fischer rats (5 weeks of age) once a day for 4 days, and at the same time, HX-1920 was administered intraperitoneally or orally.
[…] For the cisplatin non-administered group and the cisplatin administered vehicle control group, 1 ml/day of a 1 % gum arabic solution was administered per rat.

[8] = 20 mg/kg orally in capsules 30 min before i.v. cisplatin (0.4 mg/kg/day 3 days, then 0.8 mg/kg/day 4 days)
[9] = 10 mg/kg/day p.o. in 2.5 % NaHCO3 over 8 days
[10] = 100 mg/kg/day p.o. in 2.5 % NaHCO3 over 8 days

With `CN1C(C(=O)Nc2ccccc2-c2nnn[nH]2)=C(O)c2ccccc2S1(=O)=O` [HX-1920, 4-hydroxy-2-methyl-N-(2-(1H-tetrazol-5-yl)phenyl)2H-1,2-benzothiazine-3-carboxamide-1,1-dioxide] the “Degree of vomiting 5th day” value [1] was 0 (4×) and I, the “Degree of vomiting 6th day” value [1] was “I (2×) and 0 (3×)” and the “Degree of vomiting 7th day” value [1] was “I (3×) and 0 (2×)”. For the same compound, the “survival (in words)” value ([2]; 100 mg/kg p.o., subsequent 5 days, all vehicle control rats died) was “all of the five rats of the HX-1920 administered group survived”, the BUN ([2]; 100 mg/kg/day p.o., 16 h after final administration) was 78.3 ± 45.7 mg/dL and the Survival ratio ([2]; 100 mg/kg/day p.o., survival over the subsequent 5 days) was 100%. For the same compound, the BUN ([3]; 10 mg/kg/day p.o.) was 51.1 ± 16.5 mg/dL, the Creatinine ([3]; 10 mg/kg/day p.o.) was 1.15 ± 0.29 mg/dL and the BUN ([3]; 100 mg/kg/day p.o.) was 38.0 ± 6.4 mg/dL. For the same compound, the Creatinine ([3]; 100 mg/kg/day p.o.) was 0.96 ± 0.05 mg/dL, the BUN ([4]; 10 mg/kg/day i.p.) was 102.8 ± 29.5 mg/dL and the Creatinine ([4]; 10 mg/kg/day i.p.) was 0.70 ± 0.04 mg/dL. It also gave a BUN ([4]; 30 mg/kg/day i.p.) of 69.6 ± 22.2 mg/dL, a Creatinine ([4]; 30 mg/kg/day i.p.) of 0.65 ± 0.04 mg/dL and a BUN ([4]; 50 mg/kg/day p.o.) of 138.1 ± 47.6 mg/dL. It also gave a Creatinine ([4]; 50 mg/kg/day p.o.) of 0.83 ± 0.31 mg/dL, a BUN ([4]; 150 mg/kg/day p.o.) of 91.1 ± 58.6 mg/dL and a Creatinine ([4]; 150 mg/kg/day p.o.) of 0.65 ± 0.11 mg/dL. The “Vomiting manifestation ratio (%) 4th day” value [5, 8] was 29.4%, the “Vomiting manifestation ratio (%) 5th day” value [5, 8] was 23.5% and the “Vomiting manifestation ratio (%) 6th day” value [5, 8] was 29.4%. For the same compound, the “Vomiting manifestation ratio (%) 7th day” value [5, 8] was 52.9%, the “manifestation of vomiting (in words)” value ([5]; 20 mg/kg orally, compared with the vehicle control group) was “clearly inhibited” and the “inhibition activity against increase in BUN and creatinine (in words)” value ([6]; 10 mg/kg p.o.) was “did not exhibit clear inhibition activity”. For the same compound, the BUN [6, 9] was 51.1 ± 16.5 mg/dL, the Creatinine [6, 9] was 1.15 ± 0.29 mg/dL and the BUN [6, 10] was 38.0 ± 6.1 mg/dL. It also gave a Creatinine [6, 10] of 0.96 ± 0.05 mg/dL, an inhibition at 100 mg/kg ([6]; read-out: inhibition activity in BUN) of 38% and an inhibition at 100 mg/kg ([6]; read-out: inhibition activity in creatinine) of 25%. For the same compound, the “Diameter of center of stomach” value ([7]; 10 mg/kg i.p.) was 0.97±0.07 mm, the “Diameter of center of stomach” value ([7]; 30 mg/kg i.p.) was 1.18±0.07 mm and the “Diameter of center of stomach” value ([7]; 150 mg/kg p.o.) was 1.14±0.07 mm.
